# Values quoted from earlier work in US8981059B2, “Platelet aggregation inducing substance” (JNC Corporation, priority 2006, dated 2015).
# Test system: platelets
# Details: as disclosed in the non-patent documents
substance,measurement,value
-(Gly-Pro-Hyp)10- [polypeptide -(Gly-Pro-Hyp)10-],platelet aggregation inducing activity,low
